# Data: ChEMBL document CHEMBL1201861, “Genomics of Drug Sensitity in Cancer screening data, Wellcome Trust Sanger Institute”
# Assays:
# GMS-10 = assay: cells; assay type: functional, cell-based; conditions: Homo sapiens;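 note: growth inhibition of GMS-10 cells, read out as cell viability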
# Description: SANGER: Inhibition of human GMS-10 cell growth in a cell viability assay.
# M14 = assay: cells; assay type: functional, cell-based; conditions: Homo sapiens;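 note: growth inhibition of M14 cells, read out with a cell viability assay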
# Description: SANGER: Inhibition of human M14 cell growth in a cell viability assay.
# OVCAR-3 = assay: cells; assay type: functional, cell-based; conditions: Homo sapiens;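 note: growth inhibition of human OVCAR-3 cells, determined by a cell viability assay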
# Description: SANGER: Inhibition of human OVCAR-3 cell growth in a cell viability assay.
# KYSE-510 = assay: cells; assay type: functional, cell-based; conditions: Homo sapiens;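 note: cell viability readout used to measure how strongly growth of the cell line is suppressed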
# Description: SANGER: Inhibition of human KYSE-510 cell growth in a cell viability assay.
# NCI-H1703 = assay: cells; assay type: functional, cell-based; conditions: Homo sapiens;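 note: growth inhibition of NCI-H1703 cells, read out via a cell viability assay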
# Description: SANGER: Inhibition of human NCI-H1703 cell growth in a cell viability assay.
# A2058 = assay: cells; assay type: functional, cell-based; conditions: Homo sapiens;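 note: reduction of A2058 cell growth, read out with a viability assay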
# Description: SANGER: Inhibition of human A2058 cell growth in a cell viability assay.
# FaDu = assay: cells; assay type: functional, cell-based; conditions: Homo sapiens;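 note: cell viability readout of growth inhibition in FaDu cells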
# Description: SANGER: Inhibition of human FADU cell growth in a cell viability assay.
# J82 = assay: cells; assay type: functional, cell-based; conditions: Homo sapiens;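 note: growth inhibition of J82 cells, read out with a cell viability assay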
# Description: SANGER: Inhibition of human J82 cell growth in a cell viability assay.
# BOKU = assay: cells; assay type: functional, cell-based; conditions: Homo sapiens;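 note: growth inhibition of the human BOKU cell line, read out by a cell viability assay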
# Description: SANGER: Inhibition of human BOKU cell growth in a cell viability assay.
# Ca-Ski = assay: cells; assay type: functional, cell-based; conditions: Homo sapiens;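 note: cell viability assay measuring inhibition of Ca-Ski cell growth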
# Description: SANGER: Inhibition of human Ca-Ski cell growth in a cell viability assay.
# KYSE-180 = assay: cells; assay type: functional, cell-based; conditions: Homo sapiens;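 note: growth inhibition of KYSE-180 cells, read out with a cell viability assay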
# Description: SANGER: Inhibition of human KYSE-180 cell growth in a cell viability assay.
# HT-29 = assay: cells; assay type: functional, cell-based; conditions: Homo sapiens;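 note: growth inhibition of human HT-29 cells, read out by a cell viability assay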
# Description: SANGER: Inhibition of human HT-29 cell growth in a cell viability assay.
# SCC-3 = assay: cells; assay type: functional, cell-based, Homo sapiens; conditions: Homo sapiens, SCC-3;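 note: cell viability assay measuring inhibition of SCC-3 cell growth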
# Description: SANGER: Inhibition of human SCC-3 cell growth in a cell viability assay.
# CAKI-1 = assay: cells; assay type: functional, cell-based; conditions: Homo sapiens;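 note: growth inhibition of CAKI-1 cells, measured by a cell viability assay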
# Description: SANGER: Inhibition of human CAKI-1 cell growth in a cell viability assay.
# ABC-1 = assay: cells; assay type: functional, cell-based; conditions: Homo sapiens;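 note: growth inhibition of human ABC-1 cells, read out by a cell viability assay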
# Description: SANGER: Inhibition of human ABC-1 cell growth in a cell viability assay.
# RL = assay: cells; assay type: functional, cell-based, Homo sapiens; conditions: Homo sapiens, RL
# Description: SANGER: Inhibition of human RL cell growth in a cell viability assay.
# HOP-92 = assay: cells; assay type: functional, cell-based; conditions: Homo sapiens;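 note: cell viability readout, with IC50 reflecting inhibition of HOP-92 cell growth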
# Description: SANGER: Inhibition of human HOP-92 cell growth in a cell viability assay.
# COLO-679 = assay: cells; assay type: functional, cell-based; conditions: Homo sapiens
# Description: SANGER: Inhibition of human COLO-679 cell growth in a cell viability assay.
# NCI-H1963 = assay: cells; assay type: functional, cell-based, Homo sapiens; conditions: Homo sapiens, NCI-H1963;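 note: cell growth inhibition of the human line, determined with a cell viability assay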
# Description: SANGER: Inhibition of human NCI-H1963 cell growth in a cell viability assay.
# T98G = assay: cells; assay type: functional, cell-based; conditions: Homo sapiens;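 note: growth inhibition of T98G cells, read out by a cell viability assay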
# Description: SANGER: Inhibition of human T98G cell growth in a cell viability assay.
# KMS-12-PE = assay: cells; assay type: functional, cell-based, Homo sapiens; conditions: Homo sapiens, KMS-12-PE;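 note: growth inhibition of human KMS-12-PE cells, measured with a cell viability assay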
# Description: SANGER: Inhibition of human KMS-12-PE cell growth in a cell viability assay.
# MDA-MB-134-VI = assay: cells; assay type: functional, cell-based, Homo sapiens; conditions: Homo sapiens, MDA-MB-134-VI
# Description: SANGER: Inhibition of human MDA-MB-134-VI cell growth in a cell viability assay.
# BXPC-3 = assay: cells; assay type: functional, cell-based; conditions: Homo sapiens;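 note: growth inhibition of human BxPC-3 cells, read out by a cell viability assay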
# Description: SANGER: Inhibition of human BxPC-3 cell growth in a cell viability assay.
# SAOS-2 = assay: cells; assay type: functional, cell-based; conditions: Homo sapiens;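 note: growth inhibition of human Saos-2 cells determined by a cell viability assay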
# Description: SANGER: Inhibition of human Saos-2 cell growth in a cell viability assay.
# LB647-SCLC = assay: cells; assay type: functional, cell-based, Homo sapiens; conditions: Homo sapiens, LB647-SCLC;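 note: cell growth inhibition, read out by a viability assay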
# Description: SANGER: Inhibition of human LB647-SCLC cell growth in a cell viability assay.
# NCI-H2030 = assay: cells; assay type: functional, cell-based; conditions: Homo sapiens;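 note: growth inhibition of human NCI-H2030 cells, read out by a cell viability assay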
# Description: SANGER: Inhibition of human NCI-H2030 cell growth in a cell viability assay.
# CAL-51 = assay: cells; assay type: functional, cell-based; conditions: Homo sapiens;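 note: human CAL-51 cell line, growth inhibition read out via a cell viability assay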
# Description: SANGER: Inhibition of human CAL-51 cell growth in a cell viability assay.
# HuO-3N1 = assay: cells; assay type: functional, cell-based; conditions: Homo sapiens;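 note: cell viability readout used to measure how strongly compounds suppress proliferation of human HuO-3N1 cells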
# Description: SANGER: Inhibition of human HuO-3N1 cell growth in a cell viability assay.
# HuP-T3 = assay: cells; assay type: functional, cell-based; conditions: Homo sapiens;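 note: HuP-T3 cell growth inhibition, read out with a cell viability assay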
# Description: SANGER: Inhibition of human HuP-T3 cell growth in a cell viability assay.
# TALL-1 = assay: cells; assay type: functional, cell-based, Homo sapiens; conditions: Homo sapiens, TALL-1;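 note: growth inhibition of cultured human TALL-1 cells, read out by a cell viability assay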
# Description: SANGER: Inhibition of human TALL-1 cell growth in a cell viability assay.
# UMUC3 = assay: cells; assay type: functional, cell-based; conditions: Homo sapiens;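 note: growth inhibition of human UM-UC-3 cells, read out with a cell viability assay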
# Description: SANGER: Inhibition of human UM-UC-3 cell growth in a cell viability assay.
# A204 = assay: cells; assay type: functional, cell-based; conditions: Homo sapiens;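 note: growth inhibition of human A204 cells, read out with a cell viability assay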
# Description: SANGER: Inhibition of human A204 cell growth in a cell viability assay.
# SR = assay: cells; assay type: functional, cell-based, Homo sapiens; conditions: Homo sapiens, SR
# Description: SANGER: Inhibition of human SR cell growth in a cell viability assay.
# MONO-MAC-6 = assay: cells; assay type: functional, cell-based, Homo sapiens; conditions: Homo sapiens, MONO-MAC-6;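 note: cell viability assay measuring growth inhibition of human MONO-MAC-6 cells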
# Description: SANGER: Inhibition of human MONO-MAC-6 cell growth in a cell viability assay.
# NCI-H441 = assay: cells; assay type: functional, cell-based; conditions: Homo sapiens;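 note: growth inhibition of NCI-H441 cells, read out with a cell viability assay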
# Description: SANGER: Inhibition of human NCI-H441 cell growth in a cell viability assay.
# A 172 = assay: cells; assay type: functional, cell-based; conditions: Homo sapiens;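 note: growth inhibition of A172 cells, measured with a cell viability readout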
# Description: SANGER: Inhibition of human A172 cell growth in a cell viability assay.
# HCC70 = assay: cells; assay type: functional, cell-based; conditions: Homo sapiens;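 note: cell viability assay measuring how strongly the compound suppresses proliferation of HCC70 cells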
# Description: SANGER: Inhibition of human HCC70 cell growth in a cell viability assay.
# HCC1954 = assay: cells; assay type: functional, cell-based; conditions: Homo sapiens;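 note: growth inhibition of human HCC1954 cells, read out with a cell viability assay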
# Description: SANGER: Inhibition of human HCC1954 cell growth in a cell viability assay.
# LoVo = assay: cells; assay type: functional, cell-based; conditions: Homo sapiens;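 note: growth inhibition of human LoVo cells, read out with a cell viability assay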
# Description: SANGER: Inhibition of human LoVo cell growth in a cell viability assay.
# SIMA = assay: cells; assay type: functional, cell-based, Homo sapiens; conditions: Homo sapiens, SIMA;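 note: growth inhibition of SIMA cells, measured with a cell viability readout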
# Description: SANGER: Inhibition of human SIMA cell growth in a cell viability assay.
# ACHN = assay: cells; assay type: functional, cell-based; conditions: Homo sapiens;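 note: cell viability read-out used to gauge how strongly growth of human ACHN cells is suppressed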
# Description: SANGER: Inhibition of human ACHN cell growth in a cell viability assay.
# NCI-H1792 = assay: cells; assay type: functional, cell-based; conditions: Homo sapiens;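 note: growth inhibition of human NCI-H1792 cells, read out as cell viability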
# Description: SANGER: Inhibition of human NCI-H1792 cell growth in a cell viability assay.
# Calu-3 = assay: cells; assay type: functional, cell-based; conditions: Homo sapiens;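 note: growth inhibition of human Calu-3 cells, determined with a cell viability assay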
# Description: SANGER: Inhibition of human Calu-3 cell growth in a cell viability assay.
# NCI-H2405 = assay: cells; assay type: functional, cell-based; conditions: Homo sapiens;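 note: growth inhibition of the human cell line, read out with a cell viability assay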
# Description: SANGER: Inhibition of human NCI-H2405 cell growth in a cell viability assay.
# COLO-741 = assay: cells; assay type: functional, cell-based; conditions: Homo sapiens
# Description: SANGER: Inhibition of human COLO-741 cell growth in a cell viability assay.
# CP66-MEL = assay: cells; assay type: functional, cell-based; conditions: Homo sapiens;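 note: growth inhibition of CP66-MEL cells determined in a cell viability assay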
# Description: SANGER: Inhibition of human CP66-MEL cell growth in a cell viability assay.
# RPMI 8402 = assay: SANGER: Inhibition of human RPMI-8402 cell growth in a cell viability assay.; assay type: functional, cell-based; conditions: Homo sapiens, RPMI 8402
# YAPC = assay: cells; assay type: functional, cell-based; conditions: Homo sapiens;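 note: growth inhibition of YAPC cells, measured with a cell viability assay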
# Description: SANGER: Inhibition of human YAPC cell growth in a cell viability assay.
# SK-HEP1 = assay: cells; assay type: functional, cell-based, SK-HEP-1; conditions: Homo sapiens;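 note: cell viability readout used to quantify reduction in proliferation of human SK-HEP-1 cells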
# Description: SANGER: Inhibition of human SK-HEP-1 cell growth in a cell viability assay.
# MDA-MB-415 = assay: cells; assay type: functional, cell-based; conditions: Homo sapiens
# NCI-H2009 = assay: cells; assay type: functional, cell-based; conditions: Homo sapiens;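 note: cell viability assay measuring inhibition of NCI-H2009 cell growth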
# Description: SANGER: Inhibition of human NCI-H2009 cell growth in a cell viability assay.
# DG-75 = assay: cells; assay type: functional, cell-based, Homo sapiens; conditions: Homo sapiens, DG-75;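 note: growth inhibition of DG-75 cells, read out with a cell viability assay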
# Description: SANGER: Inhibition of human DG-75 cell growth in a cell viability assay.
# LK-2 = assay: cells; assay type: functional, cell-based; conditions: Homo sapiens;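 note: growth inhibition of LK-2 cells, read out with a viability assay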
# Description: SANGER: Inhibition of human LK-2 cell growth in a cell viability assay.
# KP-4 = assay: cells; assay type: functional, cell-based; conditions: Homo sapiens;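 note: human KP-4 cells, with growth inhibition read out through a cell viability assay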
# Description: SANGER: Inhibition of human KP-4 cell growth in a cell viability assay.
# EFM-19 = assay: cells; assay type: functional, cell-based; conditions: Homo sapiens;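 note: growth inhibition of human EFM-19 cells, measured in a cell viability assay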
# Description: SANGER: Inhibition of human EFM-19 cell growth in a cell viability assay.
# NCI-H2347 = assay: cells; assay type: functional, cell-based; conditions: Homo sapiens;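 note: growth inhibition of the cell line, read out with a cell viability assay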
# Description: SANGER: Inhibition of human NCI-H2347 cell growth in a cell viability assay.
# SCC-25 = assay: cells; assay type: functional, cell-based; conditions: Homo sapiens
# Description: SANGER: Inhibition of human SCC-25 cell growth in a cell viability assay.
# CMK = assay: cells; assay type: functional, cell-based, Homo sapiens; conditions: Homo sapiens, CMK
# Description: SANGER: Inhibition of human CMK cell growth in a cell viability assay.
# COLO-792 = assay: cells; assay type: functional, cell-based; conditions: Homo sapiens
# Description: SANGER: Inhibition of human COLO-792 cell growth in a cell viability assay.
compound,measurement,setting,value
OC[C@H](Cc1ccccc1)Nc1nc(Oc2ccc3c(c2)CCC3)nc2c1ncn2Cc1ccc(-c2ccccc2)cc1,IC50,GMS-10,> 10.2 µM
same,IC50,M14,> 10.2 µM
same,IC50,OVCAR-3,> 10.2 µM
same,IC50,KYSE-510,3.45 µM
same,IC50,NCI-H1703,> 10.2 µM
same,IC50,A2058,> 10.2 µM
same,IC50,FaDu,> 10.2 µM
same,IC50,J82,9.51 µM
same,IC50,BOKU,> 10.2 µM
same,IC50,Ca-Ski,> 10.2 µM
same,IC50,KYSE-180,> 10.2 µM
same,IC50,HT-29,8.45 µM
same,IC50,SCC-3,> 10.2 µM
same,IC50,CAKI-1,> 10.2 µM
same,IC50,ABC-1,> 10.2 µM
same,IC50,RL,> 10.2 µM
same,IC50,HOP-92,> 10.2 µM
same,IC50,COLO-679,2.66 µM
same,IC50,NCI-H1963,> 10.2 µM
same,IC50,T98G,> 10.2 µM
same,IC50,KMS-12-PE,> 10.2 µM
same,IC50,MDA-MB-134-VI,> 10.2 µM
same,IC50,BXPC-3,> 10.2 µM
same,IC50,SAOS-2,> 10.2 µM
same,IC50,LB647-SCLC,5.49 µM
same,IC50,NCI-H2030,5.25 µM
same,IC50,CAL-51,2.23 µM
same,IC50,HuO-3N1,> 10.2 µM
same,IC50,HuP-T3,> 10.2 µM
same,IC50,TALL-1,> 10.2 µM
same,IC50,UMUC3,> 10.2 µM
same,IC50,A204,> 10.2 µM
same,IC50,SR,> 10.2 µM
same,IC50,MONO-MAC-6,> 10.2 µM
same,IC50,NCI-H441,> 10.2 µM
same,IC50,A 172,6.16 µM
same,IC50,HCC70,> 10.2 µM
same,IC50,HCC1954,10 µM
same,IC50,LoVo,4.56 µM
same,IC50,SIMA,> 10.2 µM
same,IC50,ACHN,> 10.2 µM
same,IC50,NCI-H1792,> 10.2 µM
same,IC50,Calu-3,> 10.2 µM
same,IC50,NCI-H2405,> 10.2 µM
same,IC50,COLO-741,> 10.2 µM
same,IC50,CP66-MEL,> 10.2 µM
same,IC50,RPMI 8402,> 10.2 µM
same,IC50,YAPC,> 10.2 µM
same,IC50,SK-HEP1,10.1 µM
same,IC50,MDA-MB-415,> 10.2 µM
same,IC50,NCI-H2009,> 10.2 µM
same,IC50,DG-75,> 10.2 µM
same,IC50,LK-2,> 10.2 µM
same,IC50,KP-4,> 10.2 µM
same,IC50,EFM-19,> 10.2 µM
same,IC50,NCI-H2347,> 10.2 µM
same,IC50,SCC-25,> 10.2 µM
same,IC50,CMK,> 10.2 µM
same,IC50,COLO-792,4.79 µM
CCCCCCCCCCCC1=C(O)C(=O)C=C(O)C1=O [EMBELIN],IC50,GMS-10,23 µM
same,IC50,M14,11 µM
same,IC50,OVCAR-3,23.6 µM
same,IC50,KYSE-510,5.81 µM
same,IC50,NCI-H1703,19.1 µM
same,IC50,A2058,2.32 µM
same,IC50,FaDu,15.8 µM
same,IC50,J82,11.8 µM
same,IC50,BOKU,10.7 µM
same,IC50,Ca-Ski,18.2 µM
same,IC50,KYSE-180,7.58 µM
same,IC50,HT-29,7.52 µM
same,IC50,SCC-3,> 32 µM
same,IC50,CAKI-1,> 32 µM
same,IC50,ABC-1,> 32 µM
same,IC50,RL,> 32 µM
same,IC50,HOP-92,7.88 µM
same,IC50,COLO-679,4.2 µM
same,IC50,NCI-H1963,> 32 µM
same,IC50,T98G,19.6 µM
same,IC50,KMS-12-PE,> 32 µM
same,IC50,MDA-MB-134-VI,> 32 µM
same,IC50,BXPC-3,6.41 µM
same,IC50,SAOS-2,3.95 µM
same,IC50,LB647-SCLC,> 32 µM
same,IC50,NCI-H2030,12.7 µM
same,IC50,CAL-51,5.37 µM
same,IC50,HuO-3N1,> 32 µM
same,IC50,HuP-T3,> 32 µM
same,IC50,TALL-1,> 32 µM
same,IC50,UMUC3,10.1 µM
same,IC50,A204,17.4 µM
same,IC50,SR,28.2 µM
same,IC50,MONO-MAC-6,21.8 µM
same,IC50,NCI-H441,6.01 µM
same,IC50,A 172,8.78 µM
same,IC50,HCC70,> 32 µM
same,IC50,HCC1954,11.3 µM
same,IC50,LoVo,3.87 µM
same,IC50,SIMA,6.37 µM
same,IC50,ACHN,> 32 µM
same,IC50,NCI-H1792,23.1 µM
same,IC50,Calu-3,8.45 µM
same,IC50,NCI-H2405,8 µM
same,IC50,COLO-741,7.42 µM
same,IC50,CP66-MEL,4.51 µM
same,IC50,RPMI 8402,4.05 µM
same,IC50,YAPC,> 32 µM
same,IC50,SK-HEP1,9.58 µM
same,IC50,MDA-MB-415,30 µM
same,IC50,NCI-H2009,11.9 µM
same,IC50,DG-75,> 32 µM
same,IC50,LK-2,18 µM
same,IC50,KP-4,> 32 µM
same,IC50,EFM-19,4.91 µM
same,IC50,NCI-H2347,7.48 µM
same,IC50,SCC-25,> 32 µM
same,IC50,CMK,10.7 µM
same,IC50,COLO-792,> 32 µM
COc1ccc(-c2cc3nccn3c(Nc3ncccc3C(N)=O)n2)cc1OC,IC50,GMS-10,> 8 µM
same,IC50,M14,> 8 µM
same,IC50,OVCAR-3,> 8 µM
same,IC50,KYSE-510,2.87 µM
same,IC50,NCI-H1703,> 8 µM
same,IC50,A2058,> 8 µM
same,IC50,FaDu,> 8 µM
same,IC50,J82,1.51 µM
same,IC50,BOKU,> 8 µM
same,IC50,Ca-Ski,4.55 µM
same,IC50,KYSE-180,5.62 µM
same,IC50,HT-29,2.81 µM
same,IC50,SCC-3,7.5 µM
same,IC50,CAKI-1,6.1 µM
same,IC50,ABC-1,> 8 µM
same,IC50,RL,> 8 µM
same,IC50,HOP-92,> 8 µM
same,IC50,COLO-679,> 8 µM
same,IC50,NCI-H1963,> 8 µM
same,IC50,T98G,> 8 µM
same,IC50,KMS-12-PE,> 8 µM
same,IC50,MDA-MB-134-VI,> 8 µM
same,IC50,BXPC-3,2.86 µM
same,IC50,SAOS-2,> 8 µM
same,IC50,LB647-SCLC,> 8 µM
same,IC50,NCI-H2030,6.25 µM
same,IC50,CAL-51,3.02 µM
same,IC50,HuO-3N1,> 8 µM
same,IC50,HuP-T3,> 8 µM
same,IC50,TALL-1,> 8 µM
same,IC50,UMUC3,7.41 µM
same,IC50,A204,> 8 µM
same,IC50,SR,0.548 µM
same,IC50,MONO-MAC-6,0.963 µM
same,IC50,NCI-H441,5.65 µM
same,IC50,A 172,2.22 µM
same,IC50,HCC70,1.93 µM
same,IC50,HCC1954,> 8 µM
same,IC50,LoVo,2.61 µM
same,IC50,SIMA,7.18 µM
same,IC50,ACHN,1.38 µM
same,IC50,NCI-H1792,> 8 µM
same,IC50,Calu-3,> 8 µM
same,IC50,NCI-H2405,> 8 µM
same,IC50,COLO-741,> 8 µM
same,IC50,CP66-MEL,> 8 µM
same,IC50,RPMI 8402,1.77 µM
same,IC50,YAPC,> 8 µM
same,IC50,SK-HEP1,1.82 µM
same,IC50,MDA-MB-415,> 8 µM
same,IC50,NCI-H2009,> 8 µM
same,IC50,DG-75,> 8 µM
same,IC50,LK-2,> 8 µM
same,IC50,KP-4,> 8 µM
same,IC50,EFM-19,> 8 µM
same,IC50,NCI-H2347,> 8 µM
same,IC50,SCC-25,> 8 µM
same,IC50,CMK,0.682 µM
same,IC50,COLO-792,> 8 µM
